Assay results taken from publication PMC11058299, “Synthesis, molecular docking evaluation for LOX and COX-2 inhibition and determination of in-vivo analgesic potentials of aurone derivatives” (Heliyon, 2024).
Where “and” joins values, the source holds several entries; their conditions need not be identical. Equal values may be shown once.

What was measured:
[1] = tested on: heat induced tail flicking latency; experiment: Tail immersion test; type: in vivo; conditions: mice; for tail flicking latency: after 90 min, without Naloxone
Procedure: Group I: Control, Group II-XV: WE-1 to WE-7 (sample compounds) at dose of 10 mg/kg and 20 mg/kg and Group XVI: Standard. The control (Group I) was given normal saline. Group II-XV received 10 mg/kg and 20 mg/kg of test sample (WE-1 to WE-7).
The cut-off time was set at 25 s, and the time taken for the mice to flick their tails out of the water was recorded at 30, 60, 90, and 120-min intervals. An increase in the time of tail immersion was compared to the control group to determine the analgesic effect of the tested drugs. The percentage of inhibition was calculated at the time interval showing the highest effect.

[2] = tested on: formalin induced paw licking; experiment: Formalin induced paw licking test; type: in vivo; conditions: 20 mg/kg oral, mice
Procedure: The animals were divided into various groups I-XVI consisting of 8 experimental animals for control, sample compounds (WE-1 to WE-7) and standard. Group I: Control, Group II-XV: WE-1 to WE-7 (sample compounds) at dose of 10 mg/kg and 20 mg/kg and Group XVI: Standard. The control (Group I) was given normal saline. Group II-XV received 10 mg/kg and 20 mg/kg of test sample (WE-1 to WE-7). […] The acute peripheral and centrally mediated analgesic activity of aurone derivatives was evaluated using the formalin-induced pain method, as described. Samples compounds (WE-1 to WE-7) and a standard (Indomethacin 10 mg) were orally administered 30 min prior to 20 μl of 1 % formalin injection (prepared in 0.9 % saline) in right hind paw of the mice and immediately placed in a clear box to observe the animal's reaction. Paw licking or biting within 0–5 min indicated Phase 1, while animal reactions observed between 15 and 30 min indicated Phase 2. The number of paw licking or biting events was compared to the control group, and the percentage of inhibition was calculated.

- melting point: 175 to 178 °C
SMILES: COc1ccc(C=C2Oc3ccccc3C2=O)cc1OC [WE-4, 2-(3,4-dimethoxybenzylidene)benzofuran-3(2H)-one]
- tail flicking latency ([1]; 10 mg/kg): 11.23 ± 0.93
- percentage inhibition of pain, tail immersion ([1]; 20 mg/kg oral, at interval of highest effect): 74.31%
- tail flicking latency ([1]; 20 mg/kg): 13.41 ± 1.21
- percentage inhibition of paw licking, Phase I ([2]; initial phase): 49.97%
- percentage inhibition of paw licking, Phase II ([2]; late phase): 70.93% and 70.96%
- number of formalin-induced paw licking, Phase II ([2]; late phase, control 55.81 ± 3.29): 16.22 ± 1.86
